The values that follow are results of earlier work, collected in US8685448B2, “Pharmaceutical solid dosage form” (Laboratorios Del Dr. Esteve, S.A., priority 2009, dated 2014).

Where a name gives a salt, the structure may show the parent alone.

The conditions of the data set: background statement.

Turning to `COc1ccc2nc([S@@+]([O-])Cc3ncc(C)c(OC)c3C)[nH]c2c1` [esomeprazol sodium salt, sodium salt of (−)-(S)-5-methoxy-2-[(4-methoxy-3,5-dimethylpyridin-2-yl)methylsulflnyl]-3H-benzoimidazole], the solubility in water entry is reported as “extremely soluble in water”.
